Measurements reported in patent publication US20090318465A1, “METHOD FOR IDENTIFYING COMPOUNDS THAT ACT AS INSULIN-SENSITIZERS” (priority 2006, published 2009).

What was measured:
3T3 L1 fibroblasts = experiment: Adipogenesis assay (phenotype-based primary screen); assay type: cell-based, mouse; details: test compound 20 μg/ml plus 5 μg/ml insulin, 8 days
Experimental: The phenotype-based assay used for screening the test compounds in the first screening step is an adipogenesis assay. Any of a variety of adipogenesis assays can be employed. Suitable adipogenesis assays can employ fibroblasts 3T3-L1, which can be derived from mouse and insulin, for example, of either human, porcine or bovine origin. The test compounds can be dissolved at a suitable concentration (e.g., 20 μg/ml) in a suitable solvent such as DMSO. Fibroblasts can be grown in 96-well plates containing sufficient cells, for example 5×10^4 cells/well, that are cultured in nutrient medium along with 5 μg/ml of insulin. After 3 days of incubation in CO2 incubators at 37° C., the nutrient medium with compounds is removed and fresh medium is exposed to the cells. After 8 days, the ability of compounds to potentiate insulin effect on transformation into fat filled cells, adipocytes, was assessed by observing under an inverted microscope. The lipid droplets are stained with Oil red O and percentage of stained cells is determined (e.g., estimated).
Compounds that caused the formation of adipocytes by more than 5 times the vehicle are termed as actives.
The assay was designed as in the reference J. Bio. […]
At the end of 8 days, the number of fat filled adipocytes formed in each well was assessed by observing under microscope. […]

[1] = system: dexamethasone treated insulin resistant 3T3-L1 adipocytes; experiment: Insulin resistance assay (IR assay), 14C-2-deoxyglucose uptake; assay type: cell-based, mouse
From the text: A suitable insulin resistance assay includes screening of compounds which act as insulin-sensitizers using chronically dexamethasone treated 3T3-L1 adipocytes as an in vitro model. This is a known model for studying insulin signaling and insulin resistance. Chronically dexamethasone treated 3T3-L1 adipocytes serve as a valid in vitro model of insulin resistance resembling diabetes patients.
In an embodiment, the method according to the present invention includes screening compounds identified as active in the phenotype-based assay against dexamethasone treated insulin resistant adipocytes. For example, the method can include applying actives from the insulin sensitivity assay at a concentration of 1-10 μM to the insulin resistant adipocytes for 1-4 days. The adipocytes were previously prepared for the assay by long term exposure to dexamethasone, for example, at 100 nM for about 24-48 hours.
The method can also include determining whether the compounds enhance glucose uptake in the insulin resistant adipocytes by more than 50% above that enhanced by insulin. The method can then include selecting compounds as active, if they caused 1.5 fold or more increase in glucose uptake compared to insulin treated adipocytes. Glucose uptake can be measured by any of a variety of known methods, such as measuring uptake of ^14C-labeled 2-deoxyglucose, a non metabolisable analogue of D-Glucose.
The assay was designed as in the reference, British Journal of Pharmacology, 130, 351-58, 2000, which is incorporated herein by reference for disclosure of the assay.
The solution of test compound (10 μM/mL) was prepared in DMSO.
Rosiglitazone (0.1 μM in DMSO) was used as standard.
Differentiation into adipocytes was induced by known methods as described below. (J. Biol. Chem., 260, 2646-2652, 1985, which is incorporated herein by reference for disclosure of the induction).
Culture medium containing […] 1-methyl-3-isobutylxanthine (IBMX), 0.25 μM dexamethasone, 5 μg/ml insulin (bovine/human), 10 mM HEPES buffer and fetal bovine serum (FBS) 10% by volume in Dulbecco's modified Eagle's medium (DMEM) was used for differentiation.
3T3 L1 fibroblasts were seeded in 24-well or 6-well plates at a density of 0.5-2×10^4 cells/well and were allowed to reach maximal confluency.
The confluent fibroblasts were exposed to culture medium for 2 days. After this period, fresh culture medium (DMEM) containing only insulin was used, 10% FBS was added and cultured for 4 days with change of medium every 2 days. After 7 days the cultures received DMEM containing 10% FBS with no exposure to insulin. By the end of 8-10 days, more than 95% of the cells have become differentiated into adipocytes.
The mature adipocytes were exposed to dexamethasone, 100 nM added in ethanol, in culture medium and incubated for 2 days. On the third day, solution of test compound was added along with 100 nM dexamethasone containing medium for 4 days with a change in medium after every 2 days. Vehicle control contained 1% v/v of DMSO. Rosiglitazone was used as a standard and was added at a concentration of 0.1 μM in DMSO, along with 100 nM dexamethasone containing medium for 4 days with a change in medium after every 2 days. After a total period of 6 days, the cells were processed for glucose uptake as follows.
The insulin resistant adipocytes were exposed to serum-free DMEM containing 0.1% bovine serum albumin for 3-4 hours at 37° C. in CO2 atmosphere. The test compound was also present during this period. After 3-4 hours, the medium was aspirated and replaced with Kreb's Ringer phosphate (KRP) buffer at pH 7.4 and with human/porcine insulin, 200 nM. The cells were incubated for 30 minutes at 37° C. At the end of 30 minutes, 0.05 or 0.1 μCi of ^14C-2-deoxyglucose was added to each well of either 24-well or 6-well plates respectively and was incubated for exactly 5 minutes. After exactly 5 minutes, the plates were transferred to ice trays and medium was rapidly aspirated. […]

CCOC(=O)c1ccc(C(=N)NC(=O)OC)cc1C [Compound 9, 4-(Imino-methoxycarbonylaminomethyl)-2-methyl-benzoic acid ethyl ester]
activity in adipogenesis assay (active = adipocytes more than 5 times the vehicle) (3T3 L1 fibroblasts): inactive | activity in insulin resistance assay (cut off 1.5-fold of vehicle) ([1]; insulin resistant adipocytes, glucose uptake): inactive | % of Rosiglitazone (comparison with Rosiglitazone) ([1]; test compound 10 μM/mL versus Rosiglitazone 0.1 μM): NIL | Fold vehicle (fold activity over vehicle) ([1]; test compound 10 μM/mL, glucose uptake with 200 nM insulin, vehicle = 1.0): 1.01 ± 0.27
